Entries after “also recorded” stand apart in the source; their conditions may differ. Where two headings read alike, the source gives them in different places.
What was measured:
[1] = target: T1, human ADP-glucose receptor (Homo sapiens, UniProt Q9H244); assay: Intracellular calcium mobilization (FLIPR, Fluo4-AM) in CHO cells transiently transfected with the cloned receptor; type: cell-based; settings: for induction of increase in intracellular Ca2+ / receptor activation: CHO cells cotransfected with receptor, Gα16 and chimeric Gαqi3; for increase in intracellular Ca2+ in untransfected cells: untransfected CHO cells
T1 construct: such that a nucleic acid molecule encoding a full-length ADP-glucose receptor can be amplified; expressed in transfected cells
T1 sequence (Q9H244 whole entry): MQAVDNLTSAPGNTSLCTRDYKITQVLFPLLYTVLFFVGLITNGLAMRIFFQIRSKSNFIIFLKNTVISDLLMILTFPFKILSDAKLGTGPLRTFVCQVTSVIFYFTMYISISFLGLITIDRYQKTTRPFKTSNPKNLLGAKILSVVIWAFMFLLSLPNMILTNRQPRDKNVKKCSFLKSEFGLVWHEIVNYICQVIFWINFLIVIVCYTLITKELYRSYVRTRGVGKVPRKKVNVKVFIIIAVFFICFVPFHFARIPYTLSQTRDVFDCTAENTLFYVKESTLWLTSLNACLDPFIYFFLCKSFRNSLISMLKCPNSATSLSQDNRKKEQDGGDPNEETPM
Procedure: (§1) In order to characterize the function of the encoded receptor, the pCDNA3.1 expression construct containing the amplified receptor gene was transiently transfected into human embryonic kidney (HEK 293) cells or Chinese hamster ovary (CHO) cells. HEK 293 cells were cultured in DMEM containing 10% fetal bovine serum (FBS), and CHO cells were cultured in alpha-MEM with 5% FBS. All cells were kept at 37° C. in a 5% CO2 atmosphere.
(§2) For certain experiments, the cells were transiently cotransfected with the receptor construct and equimolar ratios of the G-protein alpha subunit Gα16 and/or the chimeric subunit […] in pCDNA3.1 (described in Saito et al., Nature 265-269 (1999)). For functional assays measuring intracellular calcium, twenty-four hours after transfection, cells were seeded into black clear-bottom 96-well plates at a density of 50,000 cells/well. Following overnight incubation the cells were loaded for 1 h with 1 μM of the fluorescent calcium indicator dye Fluo4-AM (Molecular Probes) dissolved in assay buffer containing Hank's balanced salts, 20 mM HEPES, 1% FBS, 2.5 mM probenecid, pH 7.4. After loading, the cells were washed three times with assay buffer without FBS. Addition of drugs and measurement of changes in intracellular calcium were performed using a fluorimetric imaging plate reader (FLIPR, Molecular Devices). Agonist responses were determined using the maximum change in fluorescence over baseline.
To enforce coupling of the novel receptor to the phospholipase C pathway, CHO cells were transiently cotransfected with expression constructs containing the amplified receptor DNA, Gα16 and a chimeric Gαq subunit carrying the C-terminal tail of Gαi3.
Dose-response curves were calculated using GraphPad Prism (GraphPad Software Inc.).
In order to determine the preferential G-protein coupling of the ADP-glucose receptor, mobilization of [Ca^2+]i was examined in CHO cells expressing either the receptor alone or in combination with either Gα16 or Gαqi3.

[2] = system: endogenous ADP-glucose receptor in HEK 293 cells; assay: Intracellular calcium mobilization (FLIPR, Fluo4-AM) in HEK 293 cells; type: cell-based, human
Procedure: as §1, §2
The ADP-glucose receptor construct was also expressed in HEK 293 cells.

guinea pig ileum = assay: Isometric contractions of guinea pig ileal segments in organ bath
Procedure: Ileal segments (about 2 cm) were prepared from male guinea pigs euthanized by asphyxiation with CO2 and mounted in an organ bath filled with Krebs-Ringer bicarbonate (KRB) buffer as described in Thomas et al., Mol. Pharmacol. 44:102-110 (1993). Isometric contractions of the preparations were measured with a force transducer and recorded on a polygraph (Grass Instruments). The contractile responses are expressed as the mass (g) required to generate the measured force. For contractile measurements of field-stimulations, ilea were mounted between platinum ring electrodes connected to a stimulator (Grass SD9). Ilea were electrically stimulated (40 mV, 8 ms duration, 0.2 Hz) for 5 min followed by a resting period of 8-10 min.
Drugs were diluted in KRB and added directly to the bath. For intraluminal drug application a polyethylene tube (I.D.: 2 mm; length: 1.2 cm) was inserted about 3 mm deep into the ileum and fixed with a surgical thread. The other end of the preparation was closed tightly by a thread. The intubated ilea were mounted in the organ bath in such a way that the open end of the polyethylene tube was extending above the buffer surface. Drugs were administered to the ileal lumen using a Hamilton syringe. After each incubation, ilea were washed three times with KRB and allowed to equilibrate for at least 10 min. For some experiments ilea were removed from animals that had been treated with 100 μg/kg pertussis toxin three days prior to the experiment. Dose response curves were obtained in separate experiments for each drug concentration tested in duplicate and EC50 values were calculated using GraphPad Prism.
However, due to the irregular nature of these contractions it was not possible to study dose-response relationships of pharmacological agents in such a preparation. Therefore, field-stimulation was used to elicit contractions that are known to be mediated by neuronal release of acetylcholine activating M3 muscarinic receptors (Cowie et al., Brit. J. Pharmacol. 64:565-580 (1978); Kilbinger et al., Eur. J. Pharmacol. 103:313-320 (1984)).

rat arterial tissues = assay: Contraction of precontracted rat arterial rings in organ bath; settings: for EC50: read-out: EC50 of relaxation
Procedure: Rat arterial tissues were prepared as described previously (Duckles, S. P., J. Pharmacol. Exp. Ther. 240: 697-700 (1987); Sara Sangha et al., J. Appl. Physiol. 88: 507-517 (2000)). Briefly, male Wistar rats (250 g) were sacrificed by decapitation. The thoracic and abdominal aorta and the carotid artery were immediately removed and cleaned of adhering tissue. Arteries were cut into rings (about 3 mm in length) and mounted into an organ bath filled with Kreb-Ringer-bicarbonate buffer at 37° C. (buffer composition: 119.2 mM NaCl, 25 mM NaHCO3, 4.9 mM KCl, 1.2 mM MgSO4, 11.1 mM glucose, 0.114 mM ascorbic acid, pH 7.4). The buffer was aerated by bubbling with 95% O2:5% CO2. Arterial rings were connected to a force transducer and isometric contractions of the preparations were recorded using MacLab. The contractile responses are expressed as the mass (g) required to generate the measured force. The arterial preparations were equilibrated for one hour at a resting force of 2 g and then challenged several times with 100 mM KCl to establish a baseline.
To determine the effect of ADP-glucose on evoked contractions, arterial rings were precontracted with either 0.3 μM phenylephrine or 0.3 μM serotonin. ADP-glucose was subsequently added to the arterial rings in a cumulative manner to establish a dose-response relationship between ADP-glucose concentration and arterial ring contraction. At the end of each experiment, residual constriction was reversed by the addition of 1 μM acetylcholine. Each arterial preparation was tested in triplicate with each cumulative dosage scheme carried out at least twice. Data are expressed as means±S.E.M. and dose-response curves were calculated with Prism (GraphPad, San Diego).

isolated frog heart = settings: cyclic perfusion; cited from earlier work
unanesthetised frogs = settings: systemic administration; cited from earlier work
[3] = CHO cells transiently transfected with receptor construct together with Gα16 and Gαqi3, read-out: EC50 of transient increase in [Ca2+]i
[4] = untransfected HEK 293 cells, endogenous receptor, read-out: EC50 of [Ca2+]i increase
[5] = carotid arteries, serotonin-induced constrictions

## Nc1ncnc2c1ncn2[C@@H]1O[C@H](COP(=O)(O)OP(=O)(O)O[C@H]2O[C@H](CO)[C@@H](O)[C@H](O)[C@H]2O)[C@@H](O)[C@H]1O [ADP-glucose, adenosine 5′-diphosphoglucose]
[1]; CHO cells cotransfected with receptor and Gαqi3, read-out: EC50 of [Ca2+]i mobilization
  EC50: 8.2 ± 1.3 µM
[1]
  induction of increase in intracellular Ca2+ / receptor activation: induced a dose-dependent and transient increase
  increase in intracellular Ca2+ in untransfected cells: not in untransfected cells
[1]; CHO cells expressing receptor alone, read-out: EC50 of [Ca2+]i mobilization
  EC50: 24 ± 4.1 µM
[1]; [3]
  EC50: 2.98 ± 0.22 µM
[1]; CHO cells, receptor with Gα16, read-out: EC50 of [Ca2+]i mobilization
  EC50: 11.8 ± 2.4 µM
[2]
  [Ca2+]i response in HEK 293 cells: strong mobilization of [Ca^2+]i
[2]; HEK 293 cells transiently cotransfected with cloned receptor and Gα16, read-out: EC50 of intracellular Ca2+ release
  EC50: 2.5 ± 0.82 µM
[2]; [4]
  EC50: 2.9 ± 0.51 µM
Guinea pig ileum; contractions produced by 0.3 μM histamine
  maximal inhibition of histamine-evoked contractions: 60%
Guinea pig ileum; contractions produced by 0.3 μM histamine, read-out: EC50 of inhibition of histamine-evoked contractions
  EC50: 6.2 ± 1.8 µM
Guinea pig ileum; field-stimulated, untreated ileum, read-out: EC50 of inhibition of electrically evoked contractions
  EC50: 6.64 ± 0.4 µM
Guinea pig ileum; ileum from pertussis toxin treated animals
  maximal inhibition of electrically evoked contractions: 40%
Guinea pig ileum; ileum from pertussis toxin treated animals, read-out: EC50 of inhibition of electrically evoked contractions
  EC50: 35.5 ± 5.5 µM
Guinea pig ileum; ileum punctured to release intraluminal content into the bath
  effect on electrically-evoked contractions: strong inhibition
Guinea pig ileum; intraluminal administration
  effect on field-stimulated contractions: no effect
Guinea pig ileum; maximally effective concentrations, untreated ileum
  maximal inhibition of electrically evoked contractions: 90%
Guinea pig ileum; muscarinic agonist oxotremorine M
  effect on contractions produced by oxotremorine M: unaffected
Guinea pig ileum; spontaneous contractions, ileum preparations
  effect on spontaneous contractions: inhibition of spontaneous contractions
Rat arterial tissues; abdominal aorta, precontracted with 0.3 μM phenylephrine
  EC50: 6.67 ± 1.8 µM
Rat arterial tissues; abdominal aorta, precontracted with 0.3 μM serotonin
  EC50: 3.26 ± 0.12 µM
Rat arterial tissues; abdominal aorta, serotonin-precontracted
  maximal relaxation: about 80%
Rat arterial tissues; [5]
  maximal relaxation: 40%
  EC50: 20.5 ± 6.3 µM
Rat arterial tissues; carotid artery, precontracted with 0.3 μM phenylephrine
  EC50: 3.1 ± 0.3 µM
Rat arterial tissues; phenylephrine-precontracted, highest concentration tested, all three tissues
  maximal relaxation: 40%-50%
Rat arterial tissues; thoracic aorta, precontracted with 0.3 μM phenylephrine
  EC50: 13.8 ± 2.8 µM
Rat arterial tissues; thoracic aorta, serotonin-precontracted
  response of serotonin-precontracted thoracic aorta: unresponsive
Rat arterial tissues; untreated arterial tissue at resting force
  effect on untreated arterial tissue: no effect

## Nc1ncnc2c1ncn2[C@@H]1O[C@H](COP(=O)(O)OP(=O)(O)O[C@H]2O[C@H](CO)[C@@H](O)[C@H](O)[C@@H]2O)[C@@H](O)[C@H]1O [ADP-mannose]
[1]
  induction of increase in intracellular Ca2+ / receptor activation: only ADP-glucose and ADP-ribose induced a dose-dependent and transient increase; also recorded: unable to activate the receptor

## Nc1ncnc2c1ncn2[C@@H]1O[C@H](COP(=O)(O)OP(=O)(O)OC[C@H]2OC(O)[C@H](O)[C@@H]2O)[C@@H](O)[C@H]1O (stereo partly shown) [ADP-ribose]
[1]
  induction of increase in intracellular Ca2+ / receptor activation: partial agonist; also recorded: induced a dose-dependent and transient increase
  increase in intracellular Ca2+ in untransfected cells: not in untransfected cells
[1]; [3]
  EC50: 59.4 ± 7.3 µM
[2]
  [Ca2+]i response in HEK 293 cells: full agonist
[2]; [4]
  EC50: 38.7 ± 10.6 µM
Guinea pig ileum; field-stimulated ileum, drug added to bath
  effect on electrically-evoked contractions: very similar inhibitory effects
Isolated frog heart
  effect on action potential in the sinus node: decrease in the action potential duration and rate of rise in the sinus node
  effect on heart rate and contraction force: dose-dependent decrease in heart rate and contraction force
Unanesthetised frogs
  effect on heart rate: reversible increase in heart rate

## Nc1ncnc2c1ncn2[C@@H]1O[C@H](COP(=O)(O)OP(=O)(O)O)[C@@H](O)[C@H]1O [ADP]
[1]
  induction of increase in intracellular Ca2+ / receptor activation: only ADP-glucose and ADP-ribose induced a dose-dependent and transient increase

## Nc1ncnc2c1ncn2[C@@H]1O[C@H](COP(=O)(O)O)[C@@H](O)[C@H]1O [AMP]
[1]
  induction of increase in intracellular Ca2+ / receptor activation: only ADP-glucose and ADP-ribose induced a dose-dependent and transient increase

## Nc1ncnc2c1ncn2[C@@H]1O[C@H](COP(=O)(O)OP(=O)(O)OP(=O)(O)O)[C@@H](O)[C@H]1O [ATP]
[1]
  induction of increase in intracellular Ca2+ / receptor activation: only ADP-glucose and ADP-ribose induced a dose-dependent and transient increase

## Nc1ccn([C@@H]2O[C@H](COP(=O)(O)OP(=O)(O)O[C@H]3O[C@H](CO)[C@@H](O)[C@H](O)[C@H]3O)[C@@H](O)[C@H]2O)c(=O)n1 [CDP-glucose]
[1]
  induction of increase in intracellular Ca2+ / receptor activation: only ADP-glucose and ADP-ribose induced a dose-dependent and transient increase
[2]
  [Ca2+]i response in HEK 293 cells: did not respond

## Nc1nc2c(ncn2[C@@H]2O[C@H](COP(=O)(O)OP(=O)(O)O[C@H]3O[C@H](CO)[C@@H](O)[C@H](O)[C@H]3O)[C@@H](O)[C@H]2O)c(=O)[nH]1 [GDP-glucose]
[1]
  induction of increase in intracellular Ca2+ / receptor activation: only ADP-glucose and ADP-ribose induced a dose-dependent and transient increase
[2]
  [Ca2+]i response in HEK 293 cells: did not respond

## Cc1cn([C@H]2C[C@H](O)[C@@H](COP(=O)(O)OP(=O)(O)O[C@H]3O[C@H](CO)[C@@H](O)[C@H](O)[C@H]3O)O2)c(=O)[nH]c1=O [TDP-glucose]
[1]
  induction of increase in intracellular Ca2+ / receptor activation: only ADP-glucose and ADP-ribose induced a dose-dependent and transient increase
[2]
  [Ca2+]i response in HEK 293 cells: did not respond

## Nc1ncnc2c1ncn2[C@@H]1O[C@H](CO)[C@@H](O)[C@H]1O [adenosine]
[1]
  induction of increase in intracellular Ca2+ / receptor activation: only ADP-glucose and ADP-ribose induced a dose-dependent and transient increase
